In US8952024B2, “Herbicidal pyrimidone derivatives” (E I du Pont de Nemours and Company, priority 2009, dated 2015):

What was measured:
[1] = system: blackgrass (Alopecurus myosuroides); assay: Test C plant response; type: in vivo; conditions: Preemergence, scale 0 to 100
[2] = system: field poppy (Papaver rhoeas); assay: Test C plant response; type: in vivo; conditions: Preemergence, scale 0 to 100
[3] = system: green foxtail (Setaria viridis); assay: Test C plant response; type: in vivo; conditions: Preemergence, scale 0 to 100
kochia (Kochia scoparia) = assay: Test C plant response; type: in vivo; conditions: Preemergence, scale 0 to 100
[4] = system: oilseed rape (Brassica napus); assay: Test C plant response; type: in vivo; conditions: Preemergence, scale 0 to 100
[5] = system: pigweed (Amaranthus retroflexus); assay: Test C plant response; type: in vivo; conditions: Preemergence, scale 0 to 100
[6] = system: Russian thistle (Salsola iberica); assay: Test C plant response; type: in vivo; conditions: Preemergence, scale 0 to 100
[7] = system: bermudagrass (Cynodon dactylon); assay: Test D pre-/postemergence plant response; type: in vivo
Procedure, shortened: (§1)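 Seeds in loam–sand blend treated preemergence, and plants at 1- to 4-leaf stage (2–18 cm) treated postemergence, with compounds in non-phytotoxic solvent with surfactant. Greenhouse for 14–21 days, then visual rating against controls, 0 (no effect) to 100 (complete control).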

[8] = system: chickweed (common chickweed, Stellaria media); assay: Test D pre-/postemergence plant response; type: in vivo; conditions: Postemergence
Procedure, shortened: as §1

[9] = system: goosegrass (Eleusine indica); assay: Test D pre-/postemergence plant response; type: in vivo
Procedure, shortened: as §1

[10] = system: johnsongrass (Sorghum halepense); assay: Test D pre-/postemergence plant response; type: in vivo
Procedure, shortened: as §1

[11] = system: spanishneedles (Bidens bipinnata); assay: Test D pre-/postemergence plant response; type: in vivo
Procedure, shortened: as §1

[12] = system: deadnettle (henbit deadnettle, Lamium amplexicaule); assay: Test B pre-/postemergence plant response; type: in vivo; conditions: Postemergence
Procedure, shortened: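 Pre-em in loam/sand; post-em at 1–4 leaf (2–18 cm) in peat mix. Solvent + surfactant formulation. Greenhouse 13–15 d; visual % control vs untreated, 0–100.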

[13] = Postemergence, 16 g ai/ha, scale 0 to 100
[14] = Postemergence, 31 g ai/ha, scale 0 to 100 (0 no effect, 100 complete control)
[15] = Postemergence, 125 g ai/ha, scale 0 to 100 (0 no effect, 100 complete control)
[16] = Postemergence, 62 g ai/ha, scale 0 to 100 (0 no effect, 100 complete control)
[17] = Preemergence, 16 g ai/ha, scale 0 to 100, 0 no effect, 100 complete control
[18] = Preemergence, 31 g ai/ha, scale 0 to 100 (0 no effect, 100 complete control)
[19] = Preemergence, 62 g ai/ha, scale 0 to 100
[20] = Preemergence, 125 g ai/ha, scale 0 to 100
[21] = 125 g ai/ha, scale 0 to 100 (0 no effect, 100 complete control)
[22] = Postemergence, 31 g ai/ha, scale 0 to 100
[23] = 31 g ai/ha, 0 to 100 scale (0 no effect, 100 complete control)
[24] = 250 g ai/ha, scale 0 to 100 (0 no effect, 100 complete control), 13 to 15 days
[25] = 62 g ai/ha, scale 0 to 100 (0 no effect, 100 complete control)
[26] = Postemergence, 250 g ai/ha, scale 0 to 100 (0 no effect, 100 complete control)
[27] = 250 g ai/ha, scale 0 to 100 (0 no effect, 100 complete control)

SMILES: O=C1CCCC(O)=C1C(=O)c1cnc(-c2ccccc2)n(-c2ccccc2)c1=O [Compound 2, 5-[(2-hydroxy-6-oxo-1-cyclohexen-1-yl)carbonyl]-2,3-diphenyl-4(3H)-pyrimidinone]
- Plant response rating: Blackgrass ([1]; 62 g ai/ha): 0
- Plant response rating: Blackgrass ([1]; 125 g ai/ha): 0
- Plant response rating: Blackgrass ([1]; 16 g ai/ha): 0
- Plant response rating: Blackgrass ([1]; 31 g ai/ha): 0
- Plant response rating: Field Poppy ([2]; 62 g ai/ha): 95
- Plant response rating: Field Poppy ([2]; 125 g ai/ha): 100
- Plant response rating: Field Poppy ([2]; 31 g ai/ha): 75
- Plant response rating: Foxtail, Green ([3]; 62 g ai/ha): 0
- Plant response rating: Foxtail, Green ([3]; 125 g ai/ha): 0
- Plant response rating: Foxtail, Green ([3]; 16 g ai/ha): 0
- Plant response rating: Foxtail, Green ([3]; 31 g ai/ha): 0
- Plant response rating: Kochia (kochia (Kochia scoparia); 62 g ai/ha): 30
- Plant response rating: Kochia (kochia (Kochia scoparia); 125 g ai/ha): 90
- Plant response rating: Kochia (kochia (Kochia scoparia); 16 g ai/ha): 5
- Plant response rating: Kochia (kochia (Kochia scoparia); 31 g ai/ha): 5
- Plant response rating: Oilseed Rape ([4]; 62 g ai/ha): 35
- Plant response rating: Oilseed Rape ([4]; 125 g ai/ha): 65
- Plant response rating: Oilseed Rape ([4]; 16 g ai/ha): 0
- Plant response rating: Oilseed Rape ([4]; 31 g ai/ha): 20
- Plant response rating: Pigweed ([5]; 62 g ai/ha): 65
- Plant response rating: Pigweed ([5]; 125 g ai/ha): 85
- Plant response rating: Pigweed ([5]; 16 g ai/ha): 0
- Plant response rating: Pigweed ([5]; 31 g ai/ha): 20
- Plant response rating: Russian Thistle ([6]; 62 g ai/ha): 0
- Plant response rating: Russian Thistle ([6]; 16 g ai/ha): 0
- Plant response rating: Russian Thistle ([6]; 31 g ai/ha): 0

SMILES: Cc1c(F)cccc1-n1c(-c2ccccc2)ncc(C(=O)C2=C(O)CCCC2=O)c1=O [Compound 47, 3-(3-fluoro-2-methylphenyl)-5-[(2-hydroxy-6-oxo-1-cyclohexen-1-yl)carbonyl]-2-phenyl-4(3H)-pyrimidinone]
- Plant response rating, Bermudagrass [7, 13]: 50
- Plant response rating, Bermudagrass [7, 14]: 50
- Plant response rating, Bermudagrass [7, 15]: 90
- Plant response rating, Bermudagrass [7, 16]: 70
- Plant response rating, Bermudagrass [7, 17]: 10
- Plant response rating, Bermudagrass [7, 18]: 25
- Plant response rating, Bermudagrass [7, 19]: 50
- Plant response rating, Bermudagrass [7, 20]: 100
- Plant response rating, Chickweed ([8]; 16 g ai/ha, scale 0 to 100): 50
- Plant response rating, Chickweed ([8]; 31 g ai/ha, scale 0 to 100): 65
- Plant response rating, Chickweed [8, 21]: 65
- Plant response rating, Goosegrass [9, 13]: 40
- Plant response rating, Goosegrass [9, 22]: 65
- Plant response rating, Goosegrass [9, 15]: 65
- Plant response rating, Goosegrass [9, 16]: 65
- Plant response rating, Goosegrass [9, 17]: 0
- Plant response rating, Goosegrass [9, 18]: 0
- Plant response rating, Goosegrass [9, 19]: 5
- Plant response rating, Goosegrass [9, 20]: 75
- Plant response rating, Johnsongrass [10, 13]: 5
- Plant response rating, Johnsongrass [10, 22]: 15
- Plant response rating, Johnsongrass [10, 15]: 65
- Plant response rating, Johnsongrass [10, 16]: 35
- Plant response rating, Johnsongrass [10, 17]: 0
- Plant response rating, Johnsongrass [10, 18]: 0
- Plant response rating, Johnsongrass [10, 19]: 0
- Plant response rating, Johnsongrass [10, 20]: 75
- Plant response rating, Spanishneedles [11, 13]: 35
- Plant response rating, Spanishneedles [11, 22]: 40
- Plant response rating, Spanishneedles [11, 15]: 70
- Plant response rating, Spanishneedles [11, 16]: 65
- Plant response rating, Spanishneedles [11, 17]: 0
- Plant response rating, Spanishneedles [11, 18]: 95
- Plant response rating, Spanishneedles [11, 20]: 95
- Plant response rating, Spanishneedles ([11]; Preemergence, rate not given, scale 0 to 100, 0 no effect, 100 complete control): 95
- melting point: 168 to 169 °C

SMILES: COCCCn1c(-c2ccccc2)ncc(C(=O)C2=C(O)CCCC2=O)c1=O [Compound 81, 5-[(2-hydroxy-6-oxo-cyclohexen-1-yl)carbonyl]-3-(3-methoxypropyl)-2-phenyl-4(3H)-pyrimidinone]
- melting point: 121 to 122 °C

SMILES: O=C1CCCC(O)=C1C(=O)c1cnc(-c2ccsc2)n(C2CCOCC2)c1=O [Compound 186]
- Plant response rating, Deadnettle [12, 23]: 90
- Plant response rating, Deadnettle [12, 21]: 100
- Plant response rating, Deadnettle [12, 24]: 100

SMILES: CCCCn1c(C2CC2)ncc(C(=O)C2=C(O)CCCC2=O)c1=O [Compound 193]
- Plant response rating, Deadnettle [12, 23]: 100
- Plant response rating, Deadnettle [12, 21]: 100
- Plant response rating, Deadnettle [12, 24]: 100
- Plant response rating, Deadnettle [12, 25]: 100

SMILES: CCCn1c(-c2ccccc2)ncc(C(=O)C2=C(O)C3CCC(C3)C2=O)c1=O (stereo not drawn) [Compound 226]
- Plant response rating, Bermudagrass [7, 14]: 90
- Plant response rating, Bermudagrass [7, 15]: 95
- Plant response rating, Bermudagrass [7, 26]: 98
- Plant response rating, Bermudagrass [7, 16]: 95
- Plant response rating, Chickweed [8, 21]: 35
- Plant response rating, Chickweed [8, 27]: 85
- Plant response rating, Chickweed [8, 25]: 35
- Plant response rating, Goosegrass [9, 15]: 70
- Plant response rating, Goosegrass [9, 26]: 75
- Plant response rating, Goosegrass [9, 16]: 70
- Plant response rating, Johnsongrass [10, 15]: 80
- Plant response rating, Johnsongrass [10, 26]: 90
- Plant response rating, Johnsongrass [10, 16]: 80
- Plant response rating, Spanishneedles [11, 15]: 75
- Plant response rating, Spanishneedles [11, 26]: 80
- Plant response rating, Spanishneedles [11, 16]: 75

SMILES: CCCCn1c(-c2ccccc2)ncc(C(=O)C2=C(O)C3CCC(C3)C2=O)c1=O (stereo not drawn) [Compound 240]
- Plant response rating, Bermudagrass [7, 22]: 85
- Plant response rating, Bermudagrass [7, 15]: 95
- Plant response rating, Bermudagrass [7, 26]: 95
- Plant response rating, Bermudagrass [7, 16]: 95
- Plant response rating, Chickweed ([8]; 31 g ai/ha, scale 0 to 100): 25
- Plant response rating, Chickweed [8, 21]: 60
- Plant response rating, Chickweed [8, 27]: 70
- Plant response rating, Chickweed [8, 25]: 50
- Plant response rating, Goosegrass [9, 22]: 70
- Plant response rating, Goosegrass [9, 15]: 80
- Plant response rating, Goosegrass [9, 26]: 80
- Plant response rating, Goosegrass [9, 16]: 70
- Plant response rating, Johnsongrass [10, 22]: 70
- Plant response rating, Johnsongrass [10, 15]: 95
- Plant response rating, Johnsongrass [10, 26]: 95
- Plant response rating, Johnsongrass [10, 16]: 90
- Plant response rating, Spanishneedles [11, 22]: 65
- Plant response rating, Spanishneedles [11, 15]: 75
- Plant response rating, Spanishneedles [11, 26]: 75
- Plant response rating, Spanishneedles [11, 16]: 65

SMILES: COCCCn1c(-c2cc(F)cc(F)c2)ncc(C(=O)C2=C(O)C3CCC(C3)C2=O)c1=O (stereo not drawn) [Compound 244]
- Plant response rating, Bermudagrass [7, 22]: 80
- Plant response rating, Bermudagrass [7, 15]: 95
- Plant response rating, Bermudagrass [7, 26]: 95
- Plant response rating, Bermudagrass [7, 16]: 80
- Plant response rating, Chickweed ([8]; 31 g ai/ha, scale 0 to 100): 15
- Plant response rating, Chickweed [8, 21]: 40
- Plant response rating, Chickweed [8, 27]: 60
- Plant response rating, Chickweed [8, 25]: 20
- Plant response rating, Goosegrass [9, 22]: 50
- Plant response rating, Goosegrass [9, 15]: 70
- Plant response rating, Goosegrass [9, 26]: 70
- Plant response rating, Goosegrass [9, 16]: 60
- Plant response rating, Johnsongrass [10, 22]: 70
- Plant response rating, Johnsongrass [10, 15]: 75
- Plant response rating, Johnsongrass [10, 26]: 75
- Plant response rating, Johnsongrass [10, 16]: 70
- Plant response rating, Spanishneedles [11, 22]: 65
- Plant response rating, Spanishneedles [11, 15]: 75
- Plant response rating, Spanishneedles [11, 26]: 75
- Plant response rating, Spanishneedles [11, 16]: 65
